{"source": "patent US20050214279A1", "about": "“Methods for stimulating human leukocytes to kill bacteria, yeast and fungi in biofilms that have formed in/on prosthetic devices, catheters, tissues and organs in vivo” (priority 2003, published 2005)", "system": "human neutrophils", "experiment": "Neutrophil phagocytosis and killing of S. epidermidis in fibrin gels", "format": "cell-based", "conditions": "bacteria 10^5 to 2×10^8 CFU/ml, neutrophils 10^6 to 4×10^8/ml (data not shown)", "description": "To facilitate processing for microscopy we used 50% autologous plasma to form gels (40 μl in volume). To increase the frequency of neutrophils and S. epidermidis interactions the gels contained 4μ 10^8 neutrophils/ml (pre-incubated in medium with or without 20 μM cytochalasin D for 15 min at room temperature), 2μ 10^8 CFU/ml S. epidermidis, and 20 μM cytochalasin D, where indicated. The gels were incubated for 60 min at 37° C., fixed with 2.5% glutaraldehyde at 4° C., and then with 1% OsO4, stained en block with 1% uranyl acetate, dehydrated, and embedded in Epon. Sections ˜[…] thick were cut, stained sequentially with lead citrate and uranyl acetate, and examined in a Phillips 1200 transmission electron microscope. […]\nIn stirred suspensions, neutrophils must phagocytose bacteria to kill them. […] Second, cytochalasin D, which facilitates neutrophil secretions, blocked both phagocytosis (as measured by electron microscopy), and killing of S. epidermidis in fibrin gels at all bacterial (10^5 to 2×10^8 CFU/ml) and neutrophil concentrations (10^6 to 4×10^8/ml) tested (data not shown). […]", "data": [{"smiles": "C=C1[C@@H](C)[C@H]2[C@H](Cc3ccccc3)NC(=O)[C@]23[C@H](OC(C)=O)/C=C/[C@@](C)(O)C(=O)[C@@H](C)C/C=C/[C@H]3[C@@H]1O", "note": "[cytochalasin D]", "values": [{"measurement": "killing of S. epidermidis in fibrin gels", "value": "blocked"}, {"measurement": "phagocytosis (as measured by electron microscopy)", "value": "blocked"}]}]}
